Source: paper PMC11480954, “Molecular determinants of resurgent sodium currents mediated by Navβ4 peptide and A-type FHFs” (Frontiers in Molecular Neuroscience, 2024)

Key:
Nav1.8 N891S [1] = experiment: INaR, Nav1.8 mutant N891S; type: cell-based, human; conditions: 1 mM FHF4A peptide, + FHF2B, ND7/23; −80 to +20 mV; n = 6
Experimental: (§1) HEK293 cells and ND7/23 cells were grown under standard tissue culture conditions (5% CO2 and 37°C) in DMEM supplemented with 10% FBS, 1% penicillin and 1% streptomycin. Using Invitrogen Lipofectamine 2000, human Nav1.7 R1599P (rpNav1.7) and the mutant constructs were transiently co-transfected with Navβ1 and Navβ2 into HEK293 cells. The constructs human Nav1.8 and mutants were transiently co-transfected with FHF2B or FHF4A into ND7/23 cells. The lipofectamine-DNA mixture was added to the cell culture medium and left for 3 h after which the cells were washed with fresh medium. Cells with green fluorescent protein fluorescence were selected for whole-cell patch-clamp recordings 36–72 h after transfection.
(§2) Whole-cell voltage-clamp recordings were performed at room temperature (~21°C) using an EPC-10 amplifier and the Pulse program (HEKA Electronics). […]
(§3) INaR: INaR was elicited by repolarizing voltage steps from +20 to −80 mV for 100 ms (or 200 ms) in −5 mV increments, following a 20-ms depolarizing potential of +30 mV. […] The relative INaR in Nav1.7 and Nav1.8 was calculated by normalizing to the peak transient current elicited at −10 or 0 mV.

[2] = molecular target: T1, human Nav1.7 R1599P (rpNav1.7) (Homo sapiens, UniProt Q15858, R1610P); experiment: Long-term inactivation of rpNav1.7; type: cell-based
T1 construct: expressed in transfected cells; host or cells: HEK293 cells, transient transfection with pcDNA3.1 construct
T1 sequence (Q15858 1-1977 isoform Q15858-3 R1599P): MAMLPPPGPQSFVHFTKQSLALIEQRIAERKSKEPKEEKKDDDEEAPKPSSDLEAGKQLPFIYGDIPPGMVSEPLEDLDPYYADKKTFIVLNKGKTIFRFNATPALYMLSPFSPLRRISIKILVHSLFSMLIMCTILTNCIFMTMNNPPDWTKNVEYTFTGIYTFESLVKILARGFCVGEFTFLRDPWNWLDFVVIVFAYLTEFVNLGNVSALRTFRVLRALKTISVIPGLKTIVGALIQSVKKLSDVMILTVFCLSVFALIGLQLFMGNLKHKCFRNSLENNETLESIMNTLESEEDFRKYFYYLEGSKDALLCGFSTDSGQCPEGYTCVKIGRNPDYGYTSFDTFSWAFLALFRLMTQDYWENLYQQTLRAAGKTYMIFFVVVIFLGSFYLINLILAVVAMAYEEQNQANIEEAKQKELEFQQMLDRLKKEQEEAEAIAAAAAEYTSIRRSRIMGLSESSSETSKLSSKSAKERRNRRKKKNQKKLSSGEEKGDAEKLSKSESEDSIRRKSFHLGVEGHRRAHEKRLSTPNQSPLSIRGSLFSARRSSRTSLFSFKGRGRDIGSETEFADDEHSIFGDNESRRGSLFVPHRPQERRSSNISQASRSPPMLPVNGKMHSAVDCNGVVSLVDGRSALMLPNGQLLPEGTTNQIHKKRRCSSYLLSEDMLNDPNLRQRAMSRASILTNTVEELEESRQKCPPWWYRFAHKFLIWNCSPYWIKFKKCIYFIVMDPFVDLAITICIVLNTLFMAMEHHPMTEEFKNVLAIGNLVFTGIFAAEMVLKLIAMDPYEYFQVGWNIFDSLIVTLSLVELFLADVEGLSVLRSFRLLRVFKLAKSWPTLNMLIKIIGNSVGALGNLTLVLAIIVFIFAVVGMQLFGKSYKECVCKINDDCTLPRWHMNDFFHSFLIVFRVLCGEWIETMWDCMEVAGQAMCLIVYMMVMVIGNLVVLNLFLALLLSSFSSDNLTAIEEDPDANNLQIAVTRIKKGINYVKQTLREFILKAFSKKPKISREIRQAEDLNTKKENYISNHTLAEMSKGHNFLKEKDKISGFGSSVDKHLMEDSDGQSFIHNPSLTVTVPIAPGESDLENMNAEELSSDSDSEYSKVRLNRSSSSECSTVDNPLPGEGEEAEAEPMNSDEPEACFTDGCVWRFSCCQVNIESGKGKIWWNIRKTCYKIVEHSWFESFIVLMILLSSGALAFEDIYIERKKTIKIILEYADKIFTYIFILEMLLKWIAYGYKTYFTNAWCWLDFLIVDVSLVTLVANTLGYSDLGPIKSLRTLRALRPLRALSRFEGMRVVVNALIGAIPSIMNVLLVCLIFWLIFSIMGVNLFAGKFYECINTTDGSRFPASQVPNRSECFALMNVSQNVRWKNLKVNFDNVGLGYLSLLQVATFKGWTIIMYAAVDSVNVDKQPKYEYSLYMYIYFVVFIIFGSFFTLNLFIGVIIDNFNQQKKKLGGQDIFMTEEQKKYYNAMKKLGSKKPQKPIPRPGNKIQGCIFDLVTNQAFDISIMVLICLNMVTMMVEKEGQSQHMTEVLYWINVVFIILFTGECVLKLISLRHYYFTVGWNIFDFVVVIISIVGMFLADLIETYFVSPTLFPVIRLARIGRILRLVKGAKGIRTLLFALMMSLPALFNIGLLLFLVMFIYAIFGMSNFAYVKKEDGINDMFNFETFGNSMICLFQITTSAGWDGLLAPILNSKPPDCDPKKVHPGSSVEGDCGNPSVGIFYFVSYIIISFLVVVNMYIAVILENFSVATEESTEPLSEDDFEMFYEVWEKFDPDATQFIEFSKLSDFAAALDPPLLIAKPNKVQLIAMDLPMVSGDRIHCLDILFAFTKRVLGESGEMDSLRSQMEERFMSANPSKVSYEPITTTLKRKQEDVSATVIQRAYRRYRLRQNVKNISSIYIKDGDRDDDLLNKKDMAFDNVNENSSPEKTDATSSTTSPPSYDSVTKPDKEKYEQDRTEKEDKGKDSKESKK
T1 sequence (Q07699 19-218 partner): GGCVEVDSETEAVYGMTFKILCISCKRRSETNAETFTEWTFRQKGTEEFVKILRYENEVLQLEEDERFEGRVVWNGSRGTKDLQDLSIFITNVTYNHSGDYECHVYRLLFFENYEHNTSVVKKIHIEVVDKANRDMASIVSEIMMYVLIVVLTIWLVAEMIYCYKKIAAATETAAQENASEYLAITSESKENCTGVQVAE
T1 sequence (O60939 30-215 partner): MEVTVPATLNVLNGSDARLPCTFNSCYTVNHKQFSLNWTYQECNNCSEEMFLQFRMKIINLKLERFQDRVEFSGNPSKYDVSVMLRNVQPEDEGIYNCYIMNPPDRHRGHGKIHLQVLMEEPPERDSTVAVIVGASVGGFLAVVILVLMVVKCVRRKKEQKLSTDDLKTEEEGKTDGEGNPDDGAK

Nav1.8 F1710K = experiment: INaR, Nav1.8 mutant F1710K; type: cell-based, human; conditions: 1 mM FHF4A peptide
Experimental: as §1, §2, §3

human Nav1.8 = experiment: INaR, Nav1.8 co-expressed with FHF2B; type: cell-based
Experimental: as §1
(§4) Whole-cell voltage-clamp recordings were performed at room temperature (~21°C) using an EPC-10 amplifier and the Pulse program (HEKA Electronics). Fire-polished electrodes (0.7–1.0 MΩ) were fabricated from 1.7 mm capillary glass using a P-97 puller (Sutter Instruments), and the tips were coated with sticky wax (KerrLab) to reduce electrode capacitance and enable increased series resistance compensation. The pipette solution contained (in mM) 140 CsF, 1.1 EGTA, 10 NaCl, and 10 HEPES, pH 7.3. The bathing solution was (in mM) 130 mM NaCl, 30 mM TEA chloride, 1 mM MgCl2, 3 mM KCl, 1 mM CaCl2, 10 mM HEPES, and 10 mM d-glucose, pH 7.3 (adjusted with NaOH). […] The offset potential was zeroed before contacting the cell. After establishing the whole-cell recording configuration, the resting potential was held at −120 or −100 mV for 5 min to allow adequate equilibration between the micropipette solution and the cell interior. Linear leak subtraction, based on resistance estimates from four to five hyperpolarizing pulses applied before the depolarizing test potential, was used for all voltage clamp recordings. Membrane currents were usually filtered at 5 kHz and sampled at 20 kHz. […] Voltage errors were minimized using 80–95% series resistance compensation, and the capacitance artifact was canceled using the computer-controlled circuitry of the patch clamp amplifier. […] The concentration-dependent curves were fitted to a hill equation: Y = Bottom + (Top-Bottom)/(1 + 10^((LogEC50-X)*HillSlope)).
as §3

Nav1.8 Y1717K [3] = experiment: Gating properties, Nav1.8 mutant Y1717K; type: cell-based, human
Experimental: as §1, §4
(§5) Families of sodium currents were induced by 50-ms depolarizing steps to various potentials ranging from −120 (or −100) to +40 mV in 5-mV increments. The conductance was calculated using the equation G(Nav) = I/(V - Vrev) in which I, V, and Vrev represent inward current value, membrane potential, and reversal potential, respectively.
Voltage dependence of steady-state inactivation was estimated using a standard double pulse protocol in which sodium currents were induced by a 50-ms depolarizing potential of 0 mV following a 500-ms prepulse at potentials that ranged from −150 to +10 mV with a 10-mV increment. Currents were plotted as a fraction of the maximum peak current. To obtain the midpoint voltages (V1/2) and slope factor (k), the curves of both steady-state activation and inactivation were fitted to a Boltzmann function.

Nav1.8 [4] = conditions: n = 6, ref Xiao et al., 2022; cited from earlier work
Excerpt: Increased INaR may result from destabilizing fast inactivation or increasing “window currents” of VGSCs ([Xiao et al., 2019]).

Nav1.8 N891S [5] = experiment: Gating properties, Nav1.8 mutant N891S; type: cell-based, human; conditions: 1 mM FHF4A peptide
Experimental: as §1, §4
as §5, with “respectively. […]” for “respectively.”

Nav1.8 Y1717K [6] = experiment: INaR, Nav1.8 mutant Y1717K; type: cell-based, human; conditions: 1 mM FHF4A peptide, + FHF2B, ND7/23; n = 10; p > 0.05 vs Nav1.8
Experimental: as §1, §2, §3

Nav1.8 [7] = conditions: ref Xiao et al., 2022; cited from earlier work
Excerpt: This mechanism requires that the peptides compete with the fast inactivation particle to block open VGSCs at strong positive potentials and unblocks upon repolarization so that the channels can reconduct ([Cannon and Bean, 2010]).

Nav1.8 [8] = conditions: ref Xiao et al., 2022; cited from earlier work; remark: listed apart in the source
Excerpt: Next, we investigated if FHF4A, another INaR mediator reported recently ([White et al., 2019]; [Xiao et al., 2022]), shares the receptor site in VGSCs with Navβ4 peptide. […] They consist of a long N-terminus, an FGF-like β-trefoil core, and a short C-terminus ([Goldfarb, 2005]). They display an intrinsic capability to generate INaR, to a varying extent, in Nav1.8 and Nav1.9.

[9] = molecular target: T1, human Nav1.7 R1599P (rpNav1.7); experiment: Inhibition of Navβ4 peptide-mediated rpNav1.7 INaR; type: cell-based; conditions: 100 μM Navβ4 peptide + 1 mM FHF4A peptide, HEK293; n = 5
[10] = Nav1.8 + FHF2B, ND7/23, 1 mM FHF4A peptide

## AAAIASGLIRQKRQAREQHW [FHF4A peptide, synthetic 20-residue peptide from FHF4A A2 – W21]
Nav1.8 N891S [1]
  INaR, N891S: no INaR was induced
[2]; 1 mM FHF4A peptide, HEK293
  effect on long-term inactivation of rpNav1.7: evidently enhanced accumulation of long-term inactivation of rpNav1.7
[2]; rpNav1.7, HEK293, 1 mM, six 16-ms pulses of −10 mV from −100 mV, 40-ms interpulse, scramble n = 6, FHF4A peptide n = 5, p < 0.0001
  fraction of the current elicited at the 6th pulse: 0.21 ± 0.03
Nav1.8 F1710K; + FHF2B, ND7/23, n = 6, p < 0.0001 vs Nav1.8
  average INaR amplitude at −15 mV, F1710K: 0.5% ± 0.1%
Nav1.8 F1710K; −15 mV, vs Nav1.8
  decrease of INaR amplitude by F1710K: ninefold
Human Nav1.8; Nav1.8 + FHF2B, ND7/23, 500 nM TTX, 1 mM peptide intracellular, measured after 20 ms into repolarization, mean ± S.E., n = 9
  average FHF4A peptide mediated INaR amplitude (peak, −15 mV), Nav1.8: 4.8% ± 0.5%
Human Nav1.8; [10]
  potential at which INaR peaked: −15 mV
  range of voltages at which INaR observed: −40 to +20 mV
Human Nav1.8; concentration-dependent curve, 1 mM
  saturation of effect on INaR: did not saturate at 1 mM
Nav1.8 Y1717K [3]; 1 mM FHF4A peptide
  V1/2 of steady-state inactivation, Y1717K vs Nav1.8: None of four lysine-mutations significantly changed the V1/2 value of steady-state inactivation
Nav1.8 Y1717K [3]; 1 mM FHF4A peptide, + FHF2B, ND7/23, n = 10
  Inactivation (V1/2), Y1717K: −38.4 ± 1.0 (10) mV
Nav1.8 Y1717K [3]; 1 mM FHF4A peptide, + FHF2B, ND7/23, n = 10, ***p < 0.0001
  Activation (V1/2), Y1717K: 7.3 ± 1.5*** (10) mV
Nav1.8 Y1717K [3]; end of 50-ms pulse of +10 mV, normalized to peak transient current, 1 mM FHF4A peptide, n = 10
  INaP, Y1717K: 5.4 ± 3.8 (10) %
Nav1.8 Y1717K [3]; vs Nav1.8, 1 mM FHF4A peptide
  positive shift of voltage dependence of activation by Y1717K: 18.4 mV
Nav1.8 [4]
  FHF4A peptide mediated Nav1.8 INaR without FHF2B (control): 2.5% ± 0.4%
Nav1.8 N891S [5]
  steady-state activation or inactivation, N891S vs Nav1.8: no effect on steady-state activation or inactivation
Nav1.8 N891S [5]; + FHF2B, ND7/23, n = 6
  Activation (V1/2), N891S: −8.6 ± 2.1 (6) mV
  Inactivation (V1/2), N891S: −36.4 ± 0.7 (6) mV
Nav1.8 N891S [5]; end of 50-ms pulse of +10 mV, normalized to peak transient current, n = 6, ***p < 0.0001
  INaP, N891S: 1.1 ± 0.5^*** (6) %
Nav1.8 Y1717K [6]
  average INaR amplitude at −15 mV, Y1717K: 4.6% ± 0.8%
Nav1.8 [7]
  effect on fast inactivation after Nav1.8 opens: accelerates fast inactivation after Nav1.8 opens
Nav1.8 [8]
  Nav1.8 INaR reconstitution by FHF4A A2 – W21 peptide: could reconstitute the Nav1.8 INaR mediated by full-length FHF4A
[9]
  inhibition of Navβ4 peptide-mediated rpNav1.7 INaR: inhibited completely
